Test results: EP0085985A1, “Pyridazinone derivatives, pharmaceutically acceptable salts thereof and pharmaceutical compositions comprising said compounds” (MITSUBISHI KASEI CORPORATION, priority 1982, dated 1983)

Assays:
[1] = system: left atrium of the guinea pig; test: Isolated, electrically driven left atrium of the guinea pig (contractility)
Procedure: (§1) By way of examples, pharmacological test procedures are described below. • (1) An isolated and cross-circulated papillary muscle preparation of the dog An isolated and cross-circulated papillary muscle preparation of the dog was prepared according to the method of Endo and Hashimoto [see American J. Physiol., 218, 1459-1463, (1970) U. S. A.]. A test compound dissolved in a solvent was applied by proximal intraarterial injection and its effect on contractility of the papillary muscle was determined. The results are shown in Table 1. • (2) Isolated left atrium of the guinea pig Male guinea pigs weighing 200 - 300 g were stunned by a blow on the head and the hearts were quickly excised and placed in a Petri dish containing oxygenated Krebs-Hensleit solution. The left atrium was excised. A fine cotton suture was attached to the left atrial appendage. The tissue was mounted in a 30 ml organ bath filled with Krebs-Hensleit solution at 37°C and oxygenated with 95% 02 - 5% C02 mixture. The cotton thread was then attached to a force- displacement transducer connected to a polygraph. A silver wire electrode connected to a stimulator was placed at the bottom of the preparaticn. Resting tension applied was 0.5 g. The preparation was driven electrically by a stimulator at a rate of 120/min. with suprathreshold rectangular pulses of 1 msec duration. The preparation was left to equilibrate for 1 hour. The test compounds dissolved in vehicle were added to the organ bath and the response was recorded. The results are shown in Table 1. • (3) Intact anesthetized dog preparation Mongrel dogs of either sex weighing 8 - 13 kg were anesthetized with sodium pentobarbital (30 mg/kg i.v.). A tracheal cannula was inserted and artificial respiration was carried out by means of a Harvard respiration. The left femoral vein was cannulated for intravenous bolus injection of the test compounds. The chest was opened at the left 4th intercostal space, the heart was exposed, and a _Walton-Brodie type strain gauge was sutured to the wall of the right ventricle to measure myocadial contractile force. A polyethylene cannula connected to a transducer was introduced into the left ventricle through the ventricular wall and left ventricular pressure was measured. Peak positive rate of rise of left ventricular pressure (dP/dt max) was obtained by an electric differentiator. The test compounds were dissolved in appropriate vehicle and intravenously administered.

[2] = system: papillary muscle preparation of the dog; test: Isolated and cross-circulated papillary muscle preparation of the dog (contractility); conditions: Canis lupus familiaris, read-out: Developed tension (% Increase); for activation at 0.03 mg: Dose 30 µg i.a.; for activation at 0.1 mg: Dose 100 µg i.a.
Procedure: as §1

anesthetized dog = test: Intact anesthetized dog preparation (in situ), cardiac contractility; assay type: in vivo; conditions: intravenous
Procedure: as §1

[3] = Acute toxicity, LD50 by the Litchfield-Wilcoxon method; conditions: in vivo
Procedure: The values for LD50 were determined by the Litchfield-Wilcoxon method [J. T. Litchfield and F. Wilcoxon, J. Pharmacol. exp. Therap., 96, 99 (1949)].

NC(=S)Nc1ccc(C2=NNC(=O)CC2)cc1 [Example 1, 4,5-dihydro-6-(4-thioureidophenyl)-3-(2H)-pyridazinone]
Developed tension (% Increase) ([1]; Concentration 3 x 10^-5 g/ml): 44.9 % Increase | Developed tension (% Increase) ([1]; Concentration 10^-5 g/ml): 24.6 % Increase | activation at 0.03 mg [2]: 9.5% | activation at 0.1 mg [2]: 21.2%

CNC(=S)Nc1ccc(C2=NNC(=O)CC2)cc1 [Example 2, 4,5-dihydro-6-(4-N-methylthioureidophenyl)-3-(2H)-pyridazinone]
Developed tension (% Increase) ([1]; Concentration 3 x 10^-6 g/ml): 32.1 % Increase | Developed tension (% Increase) ([1]; Concentration 10^-6 g/ml): 28.9 % Increase | Contractile force of right ventricle (% Increase) (anesthetized dog; Dose 0.03 mg/kg): 65.1 % Increase | dP/dt max. (% Increase) (anesthetized dog; Dose 0.03 mg/kg): 28.4 % Increase | Contractile force of right ventricle (% Increase) (anesthetized dog; Dose 0.1 mg/kg): 74.8 % Increase | dP/dt max. (% Increase) (anesthetized dog; Dose 0.1 mg/kg): 95.4 % Increase | activation at 0.01 mg ([2]; Dose 10 µg i.a.): 8.8% | activation at 0.03 mg [2]: 47.4% | LD50 ([3]; iv): > 100 mg/kg | LD50 ([3]; po): > 2200 mg/kg

CNC(=S)Nc1ccc(-c2ccc(=O)[nH]n2)cc1 [Example 3, 6-(4-N-methylthioureidophenyl)-3-(2H)-pyridazinone]
Developed tension (% Increase) ([1]; Concentration 3 x 10^-5 g/ml): 34.0 % Increase | Developed tension (% Increase) ([1]; Concentration 10^-5 g/ml): 28.3 % Increase | activation at 0.1 mg [2]: 8.1% | activation at 0.3 mg ([2]; Dose 300 µg i.a.): 15.9%

CCNC(=S)Nc1ccc(C2=NNC(=O)CC2)cc1 [Example 4, 4,5-dihydro-6-(4-N-ethylthioureidophenyl)-3-(2H)-pyridazinone]
Developed tension (% Increase) ([1]; Concentration 3 x 10^-5 g/ml): 102 % Increase | Developed tension (% Increase) ([1]; Concentration 10^-5 g/ml): 85.6 % Increase | Contractile force of right ventricle (% Increase) (anesthetized dog; Dose 0.3 mg/kg): 75.8 % Increase | dP/dt max. (% Increase) (anesthetized dog; Dose 0.3 mg/kg): 49.9 % Increase | Contractile force of right ventricle (% Increase) (anesthetized dog; Dose 1 mg/kg): 116.2 % Increase | dP/dt max. (% Increase) (anesthetized dog; Dose 1 mg/kg): 79.5 % Increase | activation at 0.03 mg [2]: 8.4% | activation at 0.1 mg [2]: 11.5%
